Results as given in paper PMC10022191, “Safety, tolerability, pharmacokinetics, and antiviral activity of the novel core protein allosteric modulator ZM-H1505R (Canocapavir) in chronic hepatitis B patients: a randomized multiple-dose escalation trial” (BMC Medicine, 2023).
Entries after “also recorded” stand apart in the source; their conditions may differ.

What was measured:
genotype D HBV = assay: primary human hepatocyte (PHH) assay, extracellular HBV DNA by qPCR
Procedure: To determine the anti-HBV activity of ZM-H1505R, the primary human hepatocyte (PHH) assay was performed in vitro. One day after infection with genotype D HBV, ZM-H1505R was added to the culture medium of PHH. The culture medium supplemented with ZM-H1505R was changed every two days. The culture supernatants were collected, of which the extracellular HBV DNA content was measured by qPCR.

[1] = phase 1b trial: plasma pharmacokinetics in CHB patients; conditions: for mean plasma trough concentration relative to protein-binding adjusted HBV DNA EC50 (135 ng/mL): day 28
Procedure: Blood samples for Canocapavir PK analysis were collected at different time points, and were collected and placed into a vacutainer with an anticoagulant (K2-EDTA), followed by centrifugation at 2,000 g and 4 °C for 10 min to collect the plasma.
All of these parameters in the treatment cohorts were analyzed using the descriptive statistics methods provided by SAS 9.1 software (Cary, NC, USA). The dose proportionality of Canocapavir was evaluated by the power model and the linear fixed-effect model. Descriptive analysis was used for safety, tolerability and antiviral activity indexes. Please see Additional file 1 for the detailed methodology.
The concentration of Canocapavir was determined using a validated high-performance liquid chromatography-tandem mass spectrometry method of FRONTAGE Laboratories (Shanghai, China), with a detection range of 10–10,000 ng/mL.
Blood samples for Canocapavir PK analysis were collected at different time points, including preadministration (30 min predosing) and 0.5, 1, 2, 3, 4, 6, 8, 12, and 24 h postdosing on day 1; predosing on days 8, 15, 22, 27, and 28; and 0.5, 1, 2, 3, 4, 6, 8, 12, 24, 48, and 72 h postdosing on day 28.

HBV = assay: phase 1b trial: antiviral activity (serum HBV markers) in CHB patients; assay type: in vivo, Hepatitis B virus
Procedure: The changes in the serum levels of HBV DNA, HBV pgRNA, HBcrAg, HBsAg, HBsAb, HBeAg, HBeAb, and HBcAb at different time points were examined. Blood samples were collected on the initial screening day (baseline) and days 1, 8, 15, 22, 29, 43 ± 1, and 57 ± 2 postdosing.
The HBV DNA level was measured using a COBAS TaqMan kit (Roche Diagnostics, Pleasanton, CA, USA), according to the manufacturer’s instructions. The lowest detectable level using this kit was 20 IU/mL. The serum levels of HBeAg and HBsAg were quantitatively assessed by a chemiluminescence method using Abbott Architect assays (Abbott Diagnostics; Abbott Park, IL, USA). The lowest detectable level of the kit for HBeAg and HBsAg were 1 and 0.05 IU/mL, respectively.

[2] = 100 mg q.d., single patient with ALT flare

O=C1CO[C@H](c2cn(-c3ccc(Br)cc3)nc2-c2ccc(F)cc2)N1CCc1ccc2[nH]c(=O)[nH]c2c1 [Canocapavir]
protein binding-adjusted HBV DNA EC50 (genotype D HBV; protein-binding adjusted): 0.135 µg/mL
protein binding-adjusted HBV DNA EC90 (genotype D HBV; protein-binding adjusted): 0.937 µg/mL
EC50 (genotype D HBV; read-out: EC50, inhibition of extracellular HBV DNA generation, PHH infected with genotype D HBV): 12.3 nM
EC90 (genotype D HBV; read-out: EC90, inhibition of extracellular HBV DNA generation, PHH infected with genotype D HBV): 83.3 nM
mean plasma trough concentration relative to protein-binding adjusted HBV DNA EC50 (135 ng/mL) ([1]; 100 mg q.d.): 7.0 fold
mean plasma trough concentration relative to protein-binding adjusted HBV DNA EC50 (135 ng/mL) ([1]; 200 mg q.d.): 14.6 fold
power model slope (regression coefficient) of exposure (Cmax and AUC) vs dose ([1]; human, in vivo): 0.82–1.14
time to maximum concentration (Tmax) ([1]; human, in vivo): 2 to 3 h
AUC0-∞ ([1]; human, in vivo, 50 mg): 25,625.6 ± 15,804.7 h·ng/mL
CL/F ([1]; human, in vivo, 50 mg): 3.4 ± 1.5 L/h
Vz/F ([1]; human, in vivo, 50 mg): 61.4 ± 23.0 L
t1/2 ([1]; human, in vivo, 50 mg): 13.0 ± 1.9 h
AUC0-∞ ([1]; human, in vivo, 100 mg): 59,399.0 ± 18,159.0 h·ng/mL
CL/F ([1]; human, in vivo, 100 mg): 2.5 ± 0.6 L/h
Tmax ([1]; human, in vivo, 100 mg): 3.0 (2.0, 4.0) h
Vz/F ([1]; human, in vivo, 100 mg): 42.3 ± 10.9 L
t1/2 ([1]; human, in vivo, 100 mg): 12.1 ± 3.7 h
AUC0-∞ ([1]; human, in vivo, 200 mg): 120,090.0 ± 57,318.9 h·ng/mL
CL/F ([1]; human, in vivo, 200 mg): 3.3 ± 2.0 L/h
Vz/F ([1]; human, in vivo, 200 mg): 73.6 ± 43.4 L
mean t1/2 after the last dosage ([1]; human, in vivo, 200 mg): 12.1 to 15.6 h
t1/2 ([1]; human, in vivo, 200 mg): 15.6 ± 2.3 h
patients with HBV DNA reduced below the lower limit of quantification (HBV; 50 mg q.d.): 0 number of patients (percentage
patients with HBV pgRNA reduced below the lower limit of quantification (~ 2 log10 copies/mL) (HBV; 50 mg q.d.): 1 (12.5%) number of patients (percentage
maximum mean HBcrAg decrease (HBV; 50 mg q.d., 28 days): -0.30 log10 kU/mL
mean maximum HBV DNA decline from baseline (HBV; 50 mg q.d., 28 days): -1.54 log10 IU/mL
mean maximum HBV pgRNA decline from baseline (HBV; 50 mg q.d., 28 days): -1.53 log10 copies/mL
HBV DNA response, subject E2003 with pre-existing HBc P25S substitution (HBV; 50 mg q.d., HBeAg (+) patient): no decrease
HBV pgRNA response, subject E2003 with pre-existing HBc P25S substitution (HBV; 50 mg q.d., HBeAg (+) patient): only slightly decreased; also recorded: only a slight decrease
patients with HBV DNA reduced below the lower limit of quantification (HBV; 100 mg q.d.): 1 (12.5%) number of patients (percentage
patients with HBV pgRNA reduced below the lower limit of quantification (~ 2 log10 copies/mL) (HBV; 100 mg q.d.): 1 (12.5%) number of patients (percentage
maximum mean HBcrAg decrease (HBV; 100 mg q.d., 28 days): -0.61 log10 kU/mL
mean maximum HBV DNA decline from baseline (HBV; 100 mg q.d., 28 days): -2.50 log10 IU/mL
mean maximum HBV pgRNA decline from baseline (HBV; 100 mg q.d., 28 days): -2.35 log10 copies/mL
maximum decrease of HBV DNA, patient E3010 (HBV; [2]): -3.23 log10 IU/mL
maximum decrease of HBV pgRNA, patient E3010 (HBV; [2]): -3.71 log10 copies/mL
maximum decrease of HBcrAg, patient E3010 (HBV; [2]): -1.96 log10 kU/mL
maximum decrease of HBsAg, patient E3010 (HBV; [2]): -0.22 log10 IU/mL
patients with HBV DNA reduced below the lower limit of quantification (HBV; 200 mg q.d.): 1 (12.5%) number of patients (percentage
patients with HBV pgRNA reduced below the lower limit of quantification (~ 2 log10 copies/mL) (HBV; 200 mg q.d.): 4 (50.0%) number of patients (percentage
maximum mean HBcrAg decrease (HBV; 200 mg q.d., 28 days): -0.51 log10 kU/mL
mean maximum HBV DNA decline from baseline (HBV; 200 mg q.d., 28 days): -2.75 log10 IU/mL
mean maximum HBV pgRNA decline from baseline (HBV; 200 mg q.d., 28 days): -2.34 log10 copies/mL
change of HBeAg level (HBV; 50–200 mg q.d., 28 days): Neither the HBsAg nor HBeAg levels decreased
change of HBsAg level (HBV; 50–200 mg q.d., 28 days): Neither the HBsAg nor HBeAg levels decreased
changes in levels of HBsAb, HBeAb, HBcAb (HBV; 50–200 mg q.d., 28 days): no clinically significant changes
